From PMC8084333, “Trehalose and α-glucan mediate distinct abiotic stress responses in Pseudomonas aeruginosa” (PLoS Genetics, 2021)

Legend:
Assay type in all cases: biochemical
TreS/Pep2 [1] = target: T1, TreS/Pep2 (Pseudomonas aeruginosa, UniProt Q9I1W3); assay: coupled spectrophotometric ADP-release assay (PK/LDH), global fit; conditions: maltokinase (Pep2 domain); ATP varied, 5 mM MgCl2, pH 8.0, 21 °C; KiB term of random order ternary complex model (substrate dissociation constant), not an inhibition constant
T1 construct: gene PA2152; natural TreS-Pep2 fusion; synthetic codon-optimised gene, N-terminal 6xHis-tag with TEV site, E. coli BL21(DE3), Ni and S200 columns
T1 sequence (Q9I1W3 1-1100): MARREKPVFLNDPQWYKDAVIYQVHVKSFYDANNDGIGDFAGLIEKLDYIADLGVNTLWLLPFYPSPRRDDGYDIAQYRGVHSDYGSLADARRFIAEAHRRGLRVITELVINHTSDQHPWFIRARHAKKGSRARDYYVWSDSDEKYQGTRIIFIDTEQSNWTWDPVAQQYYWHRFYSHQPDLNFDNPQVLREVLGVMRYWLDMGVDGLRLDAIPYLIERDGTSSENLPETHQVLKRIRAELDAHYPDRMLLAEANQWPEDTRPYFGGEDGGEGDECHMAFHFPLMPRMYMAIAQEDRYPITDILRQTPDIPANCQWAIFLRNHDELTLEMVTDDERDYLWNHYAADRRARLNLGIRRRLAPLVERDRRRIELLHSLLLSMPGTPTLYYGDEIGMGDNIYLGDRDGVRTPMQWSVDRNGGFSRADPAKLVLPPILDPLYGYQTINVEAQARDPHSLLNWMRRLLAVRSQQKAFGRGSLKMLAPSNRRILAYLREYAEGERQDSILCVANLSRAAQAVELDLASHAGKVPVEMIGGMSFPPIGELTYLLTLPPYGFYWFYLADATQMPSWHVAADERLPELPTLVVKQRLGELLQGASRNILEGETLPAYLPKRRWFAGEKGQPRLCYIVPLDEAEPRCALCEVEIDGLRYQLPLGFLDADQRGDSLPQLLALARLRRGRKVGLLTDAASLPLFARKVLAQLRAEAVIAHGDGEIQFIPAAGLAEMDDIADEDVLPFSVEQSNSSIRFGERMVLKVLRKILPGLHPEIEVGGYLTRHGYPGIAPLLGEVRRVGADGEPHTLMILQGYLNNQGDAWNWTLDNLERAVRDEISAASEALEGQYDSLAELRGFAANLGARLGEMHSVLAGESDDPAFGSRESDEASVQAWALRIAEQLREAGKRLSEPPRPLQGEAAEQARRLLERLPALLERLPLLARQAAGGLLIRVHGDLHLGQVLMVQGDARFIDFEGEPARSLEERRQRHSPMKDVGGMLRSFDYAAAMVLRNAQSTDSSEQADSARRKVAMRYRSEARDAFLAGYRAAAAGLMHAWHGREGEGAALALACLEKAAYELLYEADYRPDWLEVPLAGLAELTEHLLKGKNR

MalQ = target: T2, MalQ (Pseudomonas aeruginosa, UniProt Q9I1V2); assay: MALDI-TOF MS; conditions: 1 mM substrate; disproportionation
T2 construct: gene PA2163; recombinant, N-terminal 6xHis-tag (pET101), E. coli SoluBL21, HisTrap
T2 sequence (Q9I1V2 1-684): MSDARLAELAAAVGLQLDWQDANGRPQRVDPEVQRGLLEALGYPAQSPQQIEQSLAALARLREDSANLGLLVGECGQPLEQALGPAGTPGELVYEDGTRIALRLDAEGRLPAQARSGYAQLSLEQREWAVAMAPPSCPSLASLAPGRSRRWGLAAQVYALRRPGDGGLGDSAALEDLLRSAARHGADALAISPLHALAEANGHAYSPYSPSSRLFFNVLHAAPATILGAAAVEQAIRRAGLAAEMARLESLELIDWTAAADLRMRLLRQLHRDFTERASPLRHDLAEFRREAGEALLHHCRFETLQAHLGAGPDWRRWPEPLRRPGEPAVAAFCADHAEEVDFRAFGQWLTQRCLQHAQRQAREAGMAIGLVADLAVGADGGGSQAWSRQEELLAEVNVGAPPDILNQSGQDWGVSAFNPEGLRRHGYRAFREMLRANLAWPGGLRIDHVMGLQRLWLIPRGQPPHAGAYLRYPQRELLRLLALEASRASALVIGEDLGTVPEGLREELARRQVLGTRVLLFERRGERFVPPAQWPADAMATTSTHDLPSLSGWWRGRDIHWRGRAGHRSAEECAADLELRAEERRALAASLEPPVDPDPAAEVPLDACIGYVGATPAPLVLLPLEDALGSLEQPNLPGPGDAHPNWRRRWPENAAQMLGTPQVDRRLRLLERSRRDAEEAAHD

TreS/Pep2 [2] = target: T1, TreS/Pep2; assay: TreS activity coupled to Pep2 maltokinase ADP-release assay; conditions: trehalose isomerisation (TreS domain); ATP, 5 mM MgCl2, pH 8.0, 21 °C

Row | Compound | Ki^Mal (TreS/Pep2 [1]) | MALDI-TOF MS (MalQ) | Km (TreS/Pep2 [2])
1 | OC[C@H]1O[C@H](O[C@H]2[C@H](O)[C@@H](O)C(O)O[C@@H]2CO)[C@H](O)[C@@H](O)[C@@H]1O (stereo partly drawn) [maltose] | 550 ± 130 µM | We therefore incubated MalQ with maltose | 
2 | OC[C@H]1O[C@H](O[C@H]2O[C@H](CO)[C@@H](O)[C@H](O)[C@H]2O)[C@H](O)[C@@H](O)[C@@H]1O [trehalose] |  |  | > 100 mM
